pIC50: −log10 of the molar value. ≈ marks a conversion by molar mass, not a printed value.
How the values were obtained:
A. baumannii CDC-0033 = assay: microbe, parasite or virus in culture; type: cell-based; details: Acinetobacter baumannii, CDC0033, read-out: MIC, A. baumannii CDC-0033
[1] = target: T1, PBP3 from Acinetobacter baumannii (ATCC 19606) (Acinetobacter baumannii, UniProt A0ABX6CK25); assay: Bocillin-FL fluorescence polarization competition binding, A. baumannii PBP3; details: fluorescence polarization competition binding assay using Bocillin-FL; read-out: A. baumannii PBP3 Potency
T1 sequence (A0ABX6CK25 64-610): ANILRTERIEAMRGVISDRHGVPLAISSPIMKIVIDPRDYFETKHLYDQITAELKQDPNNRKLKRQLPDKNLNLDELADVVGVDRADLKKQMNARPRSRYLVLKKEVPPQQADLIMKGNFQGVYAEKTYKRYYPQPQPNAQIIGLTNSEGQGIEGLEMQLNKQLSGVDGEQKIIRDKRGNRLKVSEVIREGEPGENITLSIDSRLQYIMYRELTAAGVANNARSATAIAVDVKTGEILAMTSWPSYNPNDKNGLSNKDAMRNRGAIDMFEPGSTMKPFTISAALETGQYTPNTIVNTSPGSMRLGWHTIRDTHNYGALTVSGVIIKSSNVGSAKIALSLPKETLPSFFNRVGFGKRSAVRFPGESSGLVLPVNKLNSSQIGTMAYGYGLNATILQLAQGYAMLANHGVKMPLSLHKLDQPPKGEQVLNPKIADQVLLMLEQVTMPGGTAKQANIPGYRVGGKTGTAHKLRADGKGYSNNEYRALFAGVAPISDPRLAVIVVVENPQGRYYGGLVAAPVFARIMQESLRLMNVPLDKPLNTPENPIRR
Outline: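 Purified PBPs pre-incubated with inhibitor (E. coli PBP3 1.5 μM, 30 min; P. aeruginosa PBP3 0.75 μM, A. baumannii PBP1a 1 μM and PBP3 0.2 μM, 15 min), then Bocillin-FL 0.1 μM (0.05 μM for PBP1a) added; FP read up to 60 min. EC50 = concentration halving bound Bocillin-FL.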

A. baumannii 1258916 = assay: microbe, parasite or virus in culture; type: cell-based, Acinetobacter baumannii; details: Acinetobacter baumannii, 1258916, read-out: MIC, A. baumannii 1258916
[2] = test system: B. thailandensis ATCC 700388; assay: microbe, parasite or virus in culture; type: cell-based; details: Burkholderia thailandensis, ATCC700388, read-out: Minimum inhibitory concentration (MIC), B. thailandensis ATCC 700388
N. gonorrhoeae WHO Q = assay: Liquid broth MIC in Fastidious broth; details: Neisseria gonorrhoeae, read-out: Minimum Inhibitory Concentration, WHO Q
P. aeruginosa CDC-0095 = assay: microbe, parasite or virus in culture; type: cell-based; details: Pseudomonas aeruginosa, CDC0095, read-out: Minimum inhibitory concentration, P. aeruginosa CDC-0095
N. gonorrhoeae MS11 = assay: Liquid broth MIC in Fastidious broth; details: Neisseria gonorrhoeae, MS11, read-out: Minimum Inhibitory Concentration, MS11
P. aeruginosa CDC-0110 = assay: microbe, parasite or virus in culture; type: cell-based; details: Pseudomonas aeruginosa, CDC0110, read-out: Minimum inhibitory concentration, P. aeruginosa CDC-0110
P. aeruginosa ATCC 27853 = assay: microbe, parasite or virus in culture; type: cell-based; details: Pseudomonas aeruginosa, ATCC27853, read-out: Minimum inhibitory concentration, P. aeruginosa ATCC 27853
A. baumannii CDC-0036 = assay: microbe, parasite or virus in culture; type: cell-based; details: Acinetobacter baumannii, CDC0036, read-out: MIC, A. baumannii CDC-0036
N. gonorrhoeae WHO G = assay: Liquid broth MIC in Fastidious broth; details: Neisseria gonorrhoeae, read-out: Minimum Inhibitory Concentration, WHO G

Row | Structure (SMILES) | MIC (A. baumannii CDC-0033) [µg/mL] | pIC50 [1] | MIC (A. baumannii 1258916) [µg/mL] | MIC [2] [µg/mL] | MIC (N. gonorrhoeae WHO Q) [µg/mL] | MIC (P. aeruginosa CDC-0095) [µg/mL] | MIC (N. gonorrhoeae MS11) [µg/mL] | MIC (P. aeruginosa CDC-0110) [µg/mL] | MIC (P. aeruginosa ATCC 27853) [µg/mL] | MIC (A. baumannii CDC-0036) [µg/mL] | MIC (N. gonorrhoeae WHO G) [µg/mL]
1 | O=C(NCCCN1CCN(C(=O)NC(C(=O)N[C@H]2Cc3ccc(F)c(C(=O)O)c3OB2O)c2cc(F)c(O)c(O)c2Cl)C1=O)Nc1cccnc1 (stereo partly drawn) [Example 259, (3R)-3-(2-(2-chloro-5-fluoro-3,4-dihydroxyphenyl)-2-(2-oxo-3-(3-(3-(pyridin-3-yl)ureido)propyl)imidazolidine-1-carboxamido)acetamido)-7-fluoro-2-hydroxy-3,4-dihydro-2H-benzo[e][1,2]oxaborinine-8-carboxylic acid] | 2 to 4 (≈ 2.73 to 5.47 µM) | > 5.00 | < 1 | < 1 | 16 to 32 (≈ 21.9 to 43.7 µM) | 2 to 4 (≈ 2.73 to 5.47 µM) | 16 to 32 (≈ 21.9 to 43.7 µM) | < 1 | < 1 | < 1 | 16 to 32 (≈ 21.9 to 43.7 µM)
2 | O=C(NCCS(=O)(=O)N1CCN(C(=O)NC(C(=O)N[C@H]2Cc3ccc(F)c(C(=O)O)c3OB2O)c2cc(F)c(O)c(O)c2Cl)C1=O)c1ccccc1 (stereo partly drawn) [Example 260, (3R)-3-(2-(3-((2-benzamidoethyl)sulfonyl)-2-oxoimidazolidine-1-carboxamido)-2-(2-chloro-5-fluoro-3,4-dihydroxyphenyl)acetamido)-7-fluoro-2-hydroxy-3,4-dihydro-2H-benzo[e][1,2]oxaborinine-8-carboxylic acid] | 2 to 4 (≈ 2.61 to 5.22 µM) | > 5.00 | < 1 | > 128 | 16 to 32 (≈ 20.9 to 41.8 µM) | 2 to 4 (≈ 2.61 to 5.22 µM) | 16 to 32 (≈ 20.9 to 41.8 µM) | 2 to 4 (≈ 2.61 to 5.22 µM) | 2 to 4 (≈ 2.61 to 5.22 µM) | 2 to 4 (≈ 2.61 to 5.22 µM) | 16 to 32 (≈ 20.9 to 41.8 µM)
3 | O=C(NCCS(=O)(=O)N1CCN(C(=O)NC(C(=O)N[C@H]2Cc3ccc(F)c(C(=O)O)c3OB2O)c2cc(F)c(O)c(O)c2Cl)C1=O)c1cccc(O)c1 (stereo partly drawn) [Example 261, (3R)-3-(2-(2-chloro-5-fluoro-3,4-dihydroxyphenyl)-2-(3-((2-(3-hydroxybenzamido)ethyl)sulfonyl)-2-oxoimidazolidine-1-carboxamido)acetamido)-7-fluoro-2-hydroxy-3,4-dihydro-2H-benzo[e][1,2]oxaborinine-8-carboxylic acid] | 2 to 4 (≈ 2.56 to 5.12 µM) | > 5.00 | < 1 | 2 to 4 (≈ 2.56 to 5.12 µM) | 16 to 32 (≈ 20.5 to 40.9 µM) | 2 to 4 (≈ 2.56 to 5.12 µM) | 16 to 32 (≈ 20.5 to 40.9 µM) | 2 to 4 (≈ 2.56 to 5.12 µM) | 2 to 4 (≈ 2.56 to 5.12 µM) | 2 to 4 (≈ 2.56 to 5.12 µM) | 16 to 32 (≈ 20.5 to 40.9 µM)
4 | O=C(NCCS(=O)(=O)N1CCN(C(=O)NC(C(=O)N[C@H]2Cc3ccc(F)c(C(=O)O)c3OB2O)c2cc(F)c(O)c(O)c2Cl)C1=O)c1cccnc1 (stereo partly drawn) [Example 262, (3R)-3-(2-(2-chloro-5-fluoro-3,4-dihydroxyphenyl)-2-(3-((2-(nicotinamido)ethyl)sulfonyl)-2-oxoimidazolidine-1-carboxamido)acetamido)-7-fluoro-2-hydroxy-3,4-dihydro-2H-benzo[e][1,2]oxaborinine-8-carboxylic acid] | 2 to 4 (≈ 2.61 to 5.22 µM) | > 5.00 | < 1 | < 1 | 16 to 32 (≈ 20.9 to 41.7 µM) | 2 to 4 (≈ 2.61 to 5.22 µM) | 16 to 32 (≈ 20.9 to 41.7 µM) | < 1 | < 1 | < 1 | 16 to 32 (≈ 20.9 to 41.7 µM)
5 | O=C(NCCS(=O)(=O)N1CCN(C(=O)N[C@H](C(=O)N[C@H]2Cc3ccc(F)c(C(=O)O)c3OB2O)c2cc(F)c(O)c(O)c2Cl)C1=O)c1nccs1 [Example 263, (R)-3-((S)-2-(2-chloro-5-fluoro-3,4-dihydroxyphenyl)-2-(2-oxo-3-((2-(thiazole-2-carboxamido)ethyl)sulfonyl)imidazolidine-1-carboxamido)acetamido)-7-fluoro-2-hydroxy-3,4-dihydro-2H-benzo[e][1,2]oxaborinine-8-carboxylic acid] | 32 to 64 (≈ 41.4 to 82.8 µM) | 4.30 to 5.00 | 32 to 64 (≈ 41.4 to 82.8 µM) | 8 to 16 (≈ 10.4 to 20.7 µM) | > 64 | > 128 | > 64 | > 128 | 32 to 64 (≈ 41.4 to 82.8 µM) | 32 to 64 (≈ 41.4 to 82.8 µM) | > 64
6 | O=C(NCCS(=O)(=O)N1CCN(C(=O)N[C@@H](C(=O)N[C@H]2Cc3ccc(F)c(C(=O)O)c3OB2O)c2cc(F)c(O)c(O)c2Cl)C1=O)c1nccs1 [Example 264, (R)-3-((R)-2-(2-chloro-5-fluoro-3,4-dihydroxyphenyl)-2-(2-oxo-3-((2-(thiazole-2-carboxamido)ethyl)sulfonyl)imidazolidine-1-carboxamido)acetamido)-7-fluoro-2-hydroxy-3,4-dihydro-2H-benzo[e][1,2]oxaborinine-8-carboxylic acid] | < 1 | > 5.00 | < 1 | < 1 | 16 to 32 (≈ 20.7 to 41.4 µM) | 2 to 4 (≈ 2.59 to 5.18 µM) | 16 to 32 (≈ 20.7 to 41.4 µM) | < 1 | < 1 | < 1 | 16 to 32 (≈ 20.7 to 41.4 µM)
7 | O=C(O)c1c(F)ccc2c1OB(O)[C@@H](NC(=O)C(NC(=O)N1CCN(S(=O)(=O)CCNC(=O)[C@@H]3CCCN3)C1=O)c1cc(F)c(O)c(O)c1Cl)C2 (stereo partly drawn) [Example 265, (3R)-3-(2-(2-chloro-5-fluoro-3,4-dihydroxyphenyl)-2-(2-oxo-3-((2-((S)-pyrrolidine-2-carboxamido)ethyl)sulfonyl)imidazolidine-1-carboxamido)acetamido)-7-fluoro-2-hydroxy-3,4-dihydro-2H-benzo[e][1,2]oxaborinine-8-carboxylic acid] | 8 to 16 (≈ 10.5 to 21.1 µM) | > 5.00 | 2 to 4 (≈ 2.64 to 5.27 µM) | < 1 | 16 to 32 (≈ 21.1 to 42.2 µM) | 2 to 4 (≈ 2.64 to 5.27 µM) | 16 to 32 (≈ 21.1 to 42.2 µM) | < 1 | 2 to 4 (≈ 2.64 to 5.27 µM) | 2 to 4 (≈ 2.64 to 5.27 µM) | 16 to 32 (≈ 21.1 to 42.2 µM)
8 | O=C(NCCS(=O)(=O)N1CCN(C(=O)NC(C(=O)N[C@H]2Cc3ccc(F)c(C(=O)O)c3OB2O)c2cc(F)c(O)c(O)c2Cl)C1=O)Nc1cccc(O)c1 (stereo partly drawn) [Example 266, (3R)-3-(2-(2-chloro-5-fluoro-3,4-dihydroxyphenyl)-2-(3-((2-(3-(3-hydroxyphenyl)ureido)ethyl)sulfonyl)-2-oxoimidazolidine-1-carboxamido)acetamido)-7-fluoro-2-hydroxy-3,4-dihydro-2H-benzo[e][1,2]oxaborinine-8-carboxylic acid] | 2 to 4 (≈ 2.51 to 5.02 µM) | > 5.00 | < 1 | 2 to 4 (≈ 2.51 to 5.02 µM) | 16 to 32 (≈ 20.1 to 40.2 µM) | 8 to 16 (≈ 10 to 20.1 µM) | 16 to 32 (≈ 20.1 to 40.2 µM) | 2 to 4 (≈ 2.51 to 5.02 µM) | 2 to 4 (≈ 2.51 to 5.02 µM) | 2 to 4 (≈ 2.51 to 5.02 µM) | 16 to 32 (≈ 20.1 to 40.2 µM)

Reference: patent US20240270762A1, “PENICILLIN-BINDING PROTEIN INHIBITORS” (priority 2021, published 2024)
